Measured values published in patent US20250032625A1, “HETEROBIFUNCTIONAL MOLECULES AS TEAD INHIBITORS” (Merck Patent GmbH, priority 2021, published 2025).
Like-named read-outs stand apart in the source and are kept apart here.

Columns and labels:
[1] = molecular target: T1, hsTEAD1 (209-426) (Homo sapiens (Human), UniProt P28347); assay: Surface Plasmon Resonance (SPR) assay; assay type: binding; conditions: Biacore 4000, 15° C., 1:1 Langmuir model, read-out: KD TEAD1 (209-426)
Protocol: The kinetic and affinity parameters of protein-exemplary compound interactions were evaluated by SPR. hsTEAD1 (209-426) was immobilized onto a CM7 (Series S) sensor chip via the standard amine coupling procedure, at 15° C. Prior to immobilization, the carboxymethylated surface of the chip was activated with 400 mM 1-ethyl-3-(3-dimethylaminopropyl)-carbodiimide and 100 mM N-hydroxysuccinimide for 10 min. hsTEAD1 (209-426) was diluted to 11 μg/mL in 10 mM Bis-Tris at pH 6.5 and immobilized on the activated surface chip for 8 and 10 min, in order to reach 6000 to 9000 response units (RU). The remaining activated carboxymethylated groups were blocked with a 7 min injection of 1 M ethanolamine pH 8.5 after which the surface chip was washed with 0.5% (w/v) sodium dodecyl sulphate and 50 mM glycine. HBS-N, which consists of 10 mM HEPES pH 7.4 and 150 mM NaCl, was used as the background buffer during immobilization. Exemplary compounds were prediluted in DMSO, diluted 1:50 in running buffer (20 mM Tris pH 7.4, 150 mM NaCl, 1 mM DTT, 5 mM MgCl2, 0.1 mM EGTA, 0.05% CHAPS) and injected at ten different concentrations using two-fold dilution series, from 100 μM to 0.2 μM. A DMSO solvent correction (1%-3%) was performed to account for variations in bulk signal and to achieve high-quality data. Interaction analysis cycles consisted of a 240 sec sample injection (30 μL/min; association phase) followed by 600 sec of buffer flow (dissociation phase).
All sensorgrams were processed by first subtracting the binding response recorded from the control surface (reference spot), followed by subtracting of the buffer blank injection from the reaction spot. All datasets were fit to a simple 1:1 Langmuir interaction model to determine the kinetic rate constants, KD. Experiments were performed on a Biacore 4000 (Cytiva, Uppsala, Sweden) at 15° C. and the interactions were evaluated using the provided Biacore 4000 evaluation software.

[2] = molecular target: TEAD1 in NCI-H226 cells (Homo sapiens (Human), UniProt P28347); assay: TEAD degradation in NCI-H226 cell line (immunofluorescence); assay type: cell-based
Sequence of TEAD1 in NCI-H226 cells (P28347 whole entry): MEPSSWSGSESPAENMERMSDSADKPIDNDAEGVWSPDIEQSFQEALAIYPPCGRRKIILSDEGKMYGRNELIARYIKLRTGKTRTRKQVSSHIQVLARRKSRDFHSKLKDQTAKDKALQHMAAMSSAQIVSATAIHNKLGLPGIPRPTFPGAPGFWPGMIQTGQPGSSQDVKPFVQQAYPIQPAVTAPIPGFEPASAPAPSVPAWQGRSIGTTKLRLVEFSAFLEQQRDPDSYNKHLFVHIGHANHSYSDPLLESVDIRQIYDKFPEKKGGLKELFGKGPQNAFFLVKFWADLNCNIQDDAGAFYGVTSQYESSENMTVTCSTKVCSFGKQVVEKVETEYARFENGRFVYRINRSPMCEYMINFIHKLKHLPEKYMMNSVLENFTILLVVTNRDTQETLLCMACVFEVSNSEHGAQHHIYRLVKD
How it was run: (§1)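 SK-HEP1 and NCI-H226 cells were treated in duplicate for 16 or 24 h at 37 °C with compound (10 points, 1:3, top 30 µM final). After fixation, TEAD1 was immunostained with anti-TEF1 and per-cell fluorescence quantified by high-content imaging. DC50 from curve fitting.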

[3] = molecular target: T1, hsTEAD1 (209-426); assay: Thermal shift measurement / Differential Scanning Fluorimetry (DSF); assay type: binding; conditions: 100 uM compound, 2 hours at 4° C., triplicates; read-out: ΔTm TEAD1 (209-426)
Protocol: (§2) Interaction of exemplary compounds with the various TEAD isoforms TEAD1, TEAD2, TEAD3, and TEAD4 was performed in a DSF assay. YAP-binding domains (YBD) of the four isoforms were subcloned and heterogeneously expressed in E. coli as a host. Initial purification was perfomed by using affinity tags, which got removed by overnight protease treatment. Further purification of TEAD isoforms was performed by Size-Exclusion Chromatography (SEC). Target protein containing fractions were pooled, concentrated with an Amicon (10 KDa MWCO) and quantified using the Bradford assay. Exemplary compound testing in the DSF assay for determining the shift of the TEAD isoform melting temperatures has been performed as described below: DSF was performed in MicroAmpTM EnduraPlateTM Optical 96-Well Clear Reaction Plates (Applied Biosystems, Life Technologies, California, USA) using a QuantStudio 7 Flex Real-Time PCR System (Applied Biosystems). Protein samples were briefly centrifuged before preparation. The final reaction mixture (20 μL of total volume) contained 11.8 μM of […]1 (209-426), 7.3 μM of […]2 (217-447), 7.9 μM of […]3 (216-435) or 11.7 μM of […]4 (217-424), and 2 or 4-fold of Protein Thermal ShiftTM Dye (Applied Biosystems) diluted in protein buffer-20 mM Tris pH 8.0, 150 mM NaCl (+0.5 mM TCEP for TEAD1 experiments). Prior to the addition of the dye, proteins were incubated with either 1 μL DMSO 100% (apo) or 100 uM of each exemplary compound (1 μL at 2 mM in 100% DMSO added to the […] reaction mixture) for 2 hours at 4° C. The melting curve data was recorded from 25 to 90° C. with an increment rate of 0.016° C.s^-1. Excitation and emission filters were applied for Protein Thermal ShiftTM Dye (470 nm and 520 nm, respectively) and for ROX reference dye (580 nm and 623 nm, respectively). The melting temperatures (Tm) were obtained by calculating the midpoint of each transition, using the Protein Thermal Shift SoftwareTM version 1.3. The thermal stability effect of each compound (ΔTm) was calculated by subtracting the calculated Tm in presence and absence (apo) of compound. All samples were tested in triplicates.

[4] = molecular target: hsTEAD4 (217-424) (Homo sapiens (Human), UniProt Q15561); assay: as above; assay type: binding; conditions: 100 uM compound, 2 hours at 4° C., triplicates; read-out: ΔTm TEAD4 217-434
Sequence of hsTEAD4 (217-424) (Q15561 217-434): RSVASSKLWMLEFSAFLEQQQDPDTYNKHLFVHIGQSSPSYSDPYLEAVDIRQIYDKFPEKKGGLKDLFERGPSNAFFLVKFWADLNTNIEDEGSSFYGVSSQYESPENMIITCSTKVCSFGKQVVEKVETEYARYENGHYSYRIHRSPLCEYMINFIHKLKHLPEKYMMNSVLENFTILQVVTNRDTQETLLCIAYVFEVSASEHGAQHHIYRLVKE
Protocol: as §2

[5] = molecular target: hsTEAD2 (217-447) (Homo sapiens (Human), UniProt Q15562); assay: as above; assay type: binding; conditions: 100 uM compound, 2 hours at 4° C., triplicates; read-out: ΔTm TEAD2 (217-447)
Sequence of hsTEAD2 (217-447) (Q15562 217-447): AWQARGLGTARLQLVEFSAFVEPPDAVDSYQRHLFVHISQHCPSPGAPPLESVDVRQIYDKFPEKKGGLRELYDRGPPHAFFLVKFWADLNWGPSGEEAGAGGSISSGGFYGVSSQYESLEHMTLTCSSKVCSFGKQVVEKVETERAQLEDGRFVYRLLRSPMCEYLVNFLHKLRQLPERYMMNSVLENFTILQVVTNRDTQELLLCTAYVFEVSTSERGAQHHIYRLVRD
Protocol: as §2

[6] = molecular target: hsTEAD3 (216-435) (Homo sapiens (Human), UniProt Q99594); assay: as above; assay type: binding; conditions: 100 uM compound, 2 hours at 4° C., triplicates; read-out: ΔTm TEAD3 216-435
Sequence of hsTEAD3 (216-435) (Q99594 216-435): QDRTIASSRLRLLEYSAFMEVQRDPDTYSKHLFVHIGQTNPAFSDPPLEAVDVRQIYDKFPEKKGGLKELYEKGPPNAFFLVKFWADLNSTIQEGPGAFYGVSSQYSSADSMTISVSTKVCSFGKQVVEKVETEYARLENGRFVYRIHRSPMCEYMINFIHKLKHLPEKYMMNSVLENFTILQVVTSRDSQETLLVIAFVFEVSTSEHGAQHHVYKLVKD
Protocol: as §2

[7] = molecular target: TEAD1 in SK-HEP1 cells (Homo sapiens (Human), UniProt P28347); assay: TEAD degradation in SK-HEP1 cell line (immunofluorescence); assay type: cell-based
Sequence of TEAD1 in SK-HEP1 cells (P28347 whole entry): as the sequence (P28347 whole entry) above
How it was run: as §1

[8] = 24 hours, ranges, read-out: DC50 NCI-H226
[9] = 24 h incubation, read-out: DC50 NCI-H226 24 h
[10] = 24 h incubation, read-out: DC50 SK-HEP1 24 h
[11] = 24 hours, ranges, read-out: DC50 SK-HEP1

T1 sequence (P28347 209-426): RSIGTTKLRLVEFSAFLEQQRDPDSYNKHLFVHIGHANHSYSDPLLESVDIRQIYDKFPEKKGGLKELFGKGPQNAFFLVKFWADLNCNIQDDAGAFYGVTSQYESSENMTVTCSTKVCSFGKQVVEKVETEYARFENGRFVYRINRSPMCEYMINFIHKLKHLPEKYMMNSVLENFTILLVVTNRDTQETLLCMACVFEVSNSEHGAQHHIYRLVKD

`Cn1cc2c3cc(C(=O)NCCOCCOCCNC(=O)CCCNc4cccc5c4CN(C4CCC(=O)NC4=O)C5=O)ccc3n(-c3ccc(C(F)(F)F)cc3)c2n1` (centres unmarked) [Compound 14, 4-{[2-(2,6-dioxopiperidin-3-yl)-1-oxo-2,3-dihydro-1H-isoindol-4-yl]amino}-N-(2-{2-[2-({2-methyl-8-[4-(trifluoromethyl)phenyl]-2H,8H-pyrazolo[3,4-b]indol-5-yl}formamido)ethoxy]ethoxy}ethyl) butanamide] showed a Kd [1] of 0.482 µM.

For `Cn1cc2c3cc(C(=O)NCCOCCOCCNC(=O)CCCCCCNc4cccc5c4C(=O)N(C4CCC(=O)NC4=O)C5=O)ccc3n(-c3ccc(C(F)(F)F)cc3)c2n1` (centres unmarked) [Compound 6, 7-{[2-(2,6-dioxopiperidin-3-yl)-1,3-dioxo-2,3-dihydro-1H-isoindol-4-yl]amino}-N-(2-{2-[2-({2-methyl-8-[4-(trifluoromethyl)phenyl]-2H,8H-pyrazolo[3,4-b]indol-5-yl}formamido)ethoxy]ethoxy}ethyl) heptanamide], the DC50 [2, 8] was 0.1 to 1 µM, the Kd [1] was 1.4 µM and the ΔTm at 100 µM [3] was -1.1 °C. The ΔTm at 100 µM [4] was 1.4 °C.

`Cn1cc2c3cc(C(=O)NCCOCCOCCNC(=O)COCCOCCOCCOCCOCC(=O)Nc4cccc5c4C(=O)N(C4CCC(=O)NC4=O)C5=O)ccc3n(-c3ccc(C(F)(F)F)cc3)c2n1` (centres unmarked) [Compound 1, N′-[2-(2,6-dioxopiperidin-3-yl)-1,3-dioxo-2,3-dihydro-1H-isoindol-4-yl]-N-(2-{2-[2-({2-methyl-8-[4-(trifluoromethyl)phenyl]-2H,8H-pyrazolo[3,4-b]indol-5-yl}formamido)ethoxy]ethoxy}ethyl)-3,6,9,12,15-pentaoxaheptadecanediamide] was tested, and the Kd [1] was 1.87 µM, the ΔTm at 100 µM [3] was 4.7 °C and the ΔTm at 100 µM [5] was 0 °C. The ΔTm at 100 µM [6] was 0 °C.

`CN1C(=O)CCC(N2C(=O)c3cccc(NC(=O)COCCOCCOCCOCCNC(=O)c4ccc5c(c4)c4cn(C)nc4n5-c4ccc(C(F)(F)F)cc4)c3C2=O)C1=O` (centres unmarked) [Compound 36, N-[2-(1-methyl-2,6-dioxopiperidin-3-yl)-1,3-dioxo-2,3-dihydro-1H-isoindol-4-yl]-14-({2-methyl-8-[4-(trifluoromethyl)phenyl]-2H,8H-pyrazolo[3,4-b]indol-5-yl}formamido)-3,6,9,12-tetraoxatetradecanamide] gave a Kd [1] of 0.98 µM.

For `Cn1cc2c3cc(C(=O)NCCOCCOCCNC(=O)CCCCNc4cccc5c4CN(C4CCC(=O)NC4=O)C5=O)ccc3n(-c3ccc(C(F)(F)F)cc3)c2n1` (centres unmarked) [Compound 9, 5-{[2-(2,6-dioxopiperidin-3-yl)-1-oxo-2,3-dihydro-1H-isoindol-4-yl]amino}-N-(2-{2-[2-({2-methyl-8-[4-(trifluoromethyl)phenyl]-2H,8H-pyrazolo[3,4-b]indol-5-yl}formamido)ethoxy]ethoxy}ethyl) pentanamide], the DC50 [2, 9] was 30 µM, the Kd [1] was 0.97 µM and the DC50 [7, 10] was 2.4 µM. The DC50 [7, 11] was 1 to 3 µM.

Compound `Cc1ncsc1-c1ccc(CNC(=O)[C@@H]2C[C@@H](O)CN2C(=O)[C@@H](NC(=O)COCCOCCOCCOCC(=O)NCCOCCOCCNC(=O)c2ccc3c(c2)c2cn(C)nc2n3-c2ccc(C(F)(F)F)cc2)C(C)(C)C)cc1` [Compound 3, N-[(2S)-1-[(2S,4R)-4-hydroxy-2-({[4-(4-methyl-1,3-thiazol-5-yl)phenyl]methyl}carbamoyl)pyrrolidin-1-yl]-3,3-dimethyl-1-oxobutan-2-yl]-N′-(2-{2-[2-({2-methyl-8-[4-(trifluoromethyl)phenyl]-2H,8H-pyrazolo[3,4-b]indol-5-yl}formamido)ethoxy]ethoxy}ethyl)-3,6,9,12-tetraoxatetradecanediamide] has a DC50 ([2]; 16 h incubation, read-out: DC50 NCI-H226 16 h) of 3 µM, a DC50 [2, 9] of 10 µM and a Kd [1] of 0.32 µM. It also gave a ΔTm at 100 µM [3] of 3.4 °C and a ΔTm at 100 µM [4] of 0.7 °C.

`Cn1cc2c3cc(C(=O)NCCOCCOCCNC(=O)COc4cccc5c4C(=O)N(C4CCC(=O)NC4=O)C5=O)ccc3n(-c3ccc(C(F)(F)F)cc3)c2n1` (centres unmarked) [Compound 5, 2-{[2-(2,6-dioxopiperidin-3-yl)-1,3-dioxo-2,3-dihydro-1H-isoindol-4-yl]oxy}-N-(2-{2-[2-({2-methyl-8-[4-(trifluoromethyl)phenyl]-2H,8H-pyrazolo[3,4-b]indol-5-yl}formamido)ethoxy]ethoxy}ethyl)acetamide] showed a DC50 [2, 9] of 20 µM, a DC50 [2, 8] of 9 to 30 µM and a Kd [1] of 1.9 µM. The ΔTm at 100 µM [3] was 3.9 °C, the ΔTm at 100 µM [4] was 2.8 °C and the ΔTm at 100 µM [5] was -0.1 °C. For the same compound, the ΔTm at 100 µM [6] was 0.9 °C and the DC50 [7, 10] was 30 µM.

Work on `Cn1cc2c3cc(C(=O)NCCOCCOCCNC(=O)COCCOCCOCC(=O)Nc4cccc5c4C(=O)N(C4CCC(=O)NC4=O)C5=O)ccc3n(-c3ccc(C(F)(F)F)cc3)c2n1` (centres unmarked) [Compound 2, 2-{2-[2-({[2-(2,6-dioxopiperidin-3-yl)-1,3-dioxo-2,3-dihydro-1H-isoindol-4-yl]carbamoyl}methoxy)ethoxy]ethoxy}-N-(2-{2-[2-({2-methyl-8-[4-(trifluoromethyl)phenyl]-2H,8H-pyrazolo[3,4-b]indol-5-yl}formamido)ethoxy]ethoxy}ethyl)acetamide] yielded a Kd [1] of 1.52 µM, a ΔTm at 100 µM [3] of 4.1 °C and a ΔTm at 100 µM [4] of 0 °C. For the same compound, the ΔTm at 100 µM [5] was 0.7 °C and the ΔTm at 100 µM [6] was 1.3 °C.

Compound `Cc1ncsc1-c1ccc(CNC(=O)[C@H]2C[C@H](O)CN2C(=O)[C@H](NC(=O)COCCOCCOCCOCCOCCNC(=O)c2ccc3c(c2)c2cn(C)nc2n3-c2ccc(C(F)(F)F)cc2)C(C)(C)C)cc1` [Compound 11, (2R,4S)-1-[(2R)-3,3-dimethyl-2-[17-({2-methyl-8-[4-(trifluoromethyl)phenyl]-2H,8H-pyrazolo[3,4-b]indol-5-yl}formamido)-3,6,9,12,15-pentaoxaheptadecanamido]butanoyl]-4-hydroxy-N-{[4-(4-methyl-1,3-thiazol-5-yl)phenyl]methyl}pyrrolidine-2-carboxamide] has a DC50 [2, 8] of 0.1 to 1 µM, a ΔTm at 100 µM [3] of 4.5 °C and a ΔTm at 100 µM [4] of -0.2 °C. It also gave a ΔTm at 100 µM [5] of 0.3 °C, a ΔTm at 100 µM [6] of 1.3 °C and a DC50 [7, 11] of 0.1 to 1 µM.
